This passage reports viability results from ChEMBL document CHEMBL4706495, “A novel class of small molecule inhibitors with radioprotective properties” (Eur J Med Chem, 2020).

Structures are written as SMILES.

What all share (conditions): read-out: Activity
For data set [1], the system named is MOLT-4. Kind of data set: Cytotoxicity against human MOLT-4 cells assessed as cell viability at 1 uM measured after 48 hrs by WST-1 assay relative to control. The data set is classed as functional. A general note: Tetrazolium dyes change colour on reduction, which living cells bring about.
Data set [2] deals with HT-29. Briefly: Cytotoxicity against human HT-29 cells assessed as cell viability at 1 uM measured after 48 hrs by WST-1 assay relative to control. The data set is classed as functional.
Data set [3] deals with HeLa. Briefly: Cytotoxicity against human HeLa cells assessed as cell viability at 1 uM measured after 48 hrs by WST-1 assay relative to control. The data set is classed as functional.
Data set [4] deals with SAOS-2. Kind of data set: Cytotoxicity against human SAOS-2 cells assessed as cell viability at 1 uM measured after 48 hrs by WST-1 assay relative to control. The data set is classed as functional.
The subject of data set [5] is A549. Briefly: Cytotoxicity against human A549 cells assessed as cell viability at 1 uM measured after 48 hrs by WST-1 assay relative to control. The data set is classed as functional.
Data set [6] relates to MCF7. Briefly: Cytotoxicity against human MCF7 cells assessed as cell viability at 1 uM measured after 48 hrs by WST-1 assay relative to control. The data set is classed as functional.
Data set [7] deals with A2780. Briefly: Cytotoxicity against human A2780 cells assessed as cell viability at 1 uM measured after 48 hrs by WST-1 assay relative to control. Format: functional.
Data set [8] concerns PANC-1. Briefly: Cytotoxicity against human PANC-1 cells assessed as cell viability at 1 uM measured after 48 hrs by WST-1 assay relative to control. The data set is classed as functional.
Data set [9] concerns Jurkat. Kind of data set: Cytotoxicity against human Jurkat cells assessed as cell viability at 1 uM measured after 48 hrs by WST-1 assay relative to control. The data set is classed as functional.
Data set [10] is described as follows: Cytotoxicity against human MRC5 cells assessed as cell viability at 1 uM measured after 48 hrs by WST-1 assay relative to control. Format: cell-based.

Turning to `COc1cccc2c1C(=O)c1c(O)c3c(c(O)c1C2=O)C[C@@](O)(C(=O)CO)C[C@@H]3O[C@H]1C[C@H](N)[C@H](O)[C@H](C)O1` [DOXORUBICIN], the viability at 1 µM in [1] was found to be 1%; in data set [2], 55%; in [3], 76%; in [4] it was 22%; in [5] it was 42%; in data set [6], 32%. Further, the viability at 1 µM in data set [7] was determined as 8%; in data set [8], 78%; in [9], 2%. Besides, the viability at 48 h, 1 µM in data set [10] stood at 22%.
